Inconclusive results are not listed.

The test has as its system D54 LucT luciferase reporter counterscreen, luminescence, 24 h. Description: reporter signal increase, D54 LucT cells – cell-based, luminescence, cherry pick, counter-screen for N-linked glycosylation inhibitor project, dose response (AID 624404).
Take `CC1(C)Cc2c(c(N3CCOCC3)nc3snc(N)c23)CO1`: the AC35 is 1200 nM. Then `COc1ccc(CNC(=O)C/C(C)=N/NC(=O)COc2ccc(C)cc2Br)cc1`, with 3090 nM; and `O=C(c1cn(Cc2ccccc2)nc1-c1ccccc1)N1CCN(c2ccccn2)CC1`, with 984 nM; and `Cc1ccc(C(=O)N/C(=C/c2cccs2)C(=O)NCCc2c[nH]c3ccccc23)cc1`, with 1170 nM. As to `COc1ccc(Cl)cc1S(=O)(=O)Nc1ccc2c(c1)n(C)c(=O)n2C`, the AC35 is 535 nM. Then `O=C(N/N=C/c1ccco1)c1ccccc1OCc1ccccc1Cl`, with 1110 nM; and `CCN(CCCNC(=O)CCCOc1cc(=O)n(C)c2ccccc12)Cc1ccccc1`, with 510 nM. For `C=CCn1c(SCc2c(C)noc2C)nc2sc(C)c(C)c2c1=O` the value was 2020 nM; for `COc1cc(/C=C/C(=O)OCC(=O)NCc2ccc(F)cc2)ccc1O`, 88.1 nM; for `CSc1ncnc2c1ncn2CCCN[C@H](C)c1cccc2ccccc12`, 527 nM. For `C[C@@]12C(=O)Nc3ccc(F)cc3C(=O)N1[C@H]1c3cc(Cl)ccc3OC[C@@H]1[C@@H]2c1ccccc1` the value was 1820 nM; for `c1ccc2c(-c3nc4ccccc4[nH]3)cccc2c1`, 911 nM. On to `O=C1[C@H]2[C@@H](c3ccc(F)cc3)N3C(=O)N(c4cccc(Br)c4)C(=O)[C@@]3(Cc3ccccc3)[C@H]2C(=O)N1C1CCCCC1`, for which the AC35 was 480 nM. Turning to `O=C(c1cccs1)N1CCC(c2nc3c(nnn3Cc3cccc(Cl)c3)c(=O)[nH]2)CC1`, the AC35 was 174 nM. Take `CCc1nc2ccc(C(=O)NCCc3c[nH]c4ccccc34)cn2c1N(C=O)CCC(C)C`: the AC35 is 645 nM.

Consider `Cc1cc(C)nc(/N=C(\N)Nc2ccc(CC(=O)OC(C)C)cc2)n1`, for which the AC35 is 1680 nM. On to `COc1cccc(Sc2ccccc2/C=N/NC(N)=O)c1`, for which the AC35 is 3390 nM. As to `O=C(N/N=C/c1ccccn1)c1sc2ccccc2c1Cl`, the AC35 was 93.1 nM.

Consider `CCCC(=O)Nc1nc2ccc(NC(=O)c3c(F)c(F)c(OC)c(F)c3F)cc2s1`, for which the AC35 was 2270 nM.

Take `Cc1cccc(Nc2nc(N)nc(-c3oc4ccccc4c3C)n2)c1`: the AC35 was 1570 nM.

As for `CC(C)(C)c1ccc(OCc2ccc(C(=O)N3CCOCC3)o2)cc1`, the AC35 is 1460 nM. As for `Nc1[nH]nc2nc(NCc3ccccc3)c3c(c12)CCN(Cc1ccccc1)C3`, the AC35 is 2840 nM. Then `CC(Nc1nc(-c2cccnc2)nc2ccccc12)c1ccccc1` (stereo not drawn), with 1050 nM; and `Cc1ccc2c(CC(=O)NCc3ccco3)coc2c1C`, with 4460 nM; and `O=C(NCc1ccccc1Br)c1cccc2c1C(=O)c1ccc(-c3ccc(OC(F)(F)F)cc3)cc1S2(=O)=O`, with 408 nM. For the compound `Cc1ccc(S(=O)(=O)C(NC(=O)c2ccccc2)=C(Cl)Cl)cc1`, the AC35 was 4390 nM.

As to `CN(Cc1ccccc1)c1nc2c(c(=O)[nH]c(=O)n2C)n1CCCc1ccccc1`, the AC35 was 909 nM. Turning to `COc1cc2c(cc1OC)C(c1cccs1)N(C(=O)c1cccc(S(=O)(=O)N(C)C)c1)CC2` (stereo not drawn), the AC35 is 640 nM. As to `Cc1cccc(/C=N\Nc2cn[nH]c(=O)c2Cl)c1`, the AC35 is 163 nM. For `CC1(C)Cc2nc3sc4c(SCC(=O)NCc5ccccc5)ncnc4c3cc2CO1`, the AC35 is 15.7 nM. Consider `Cc1cccc(NC(=O)Nc2cccc(C#N)c2)n1`, for which the AC35 is 467 nM. In the case of `COc1ccc(C(=O)/C=C/c2ccc(OC)c(O)c2)c(F)c1`, the AC35 was 219 nM.

Consider `Cc1ccc(NCCN(C)C)c2c(=O)c3cc(O)ccc3sc12`, for which the AC35 was 5710 nM. Then `Cc1ccc(NC2=NC3(CCCC3)N=C(N)N2)c(C)c1`, with 7540 nM. As to `COc1ccc(C(=O)Nc2sc(C)c(C)c2CN2CC(C)OC(C)C2)cc1` (stereo not drawn), the AC35 was 352 nM. For `CC(C)C1N=C(c2ccc3c(c2)OCO3)CC(c2ccccc2O)N1` (stereo not drawn) the value was 3510 nM; for `COc1cc(C(=O)NCC(=O)NCCN2C(=O)S/C(=C\c3ccccc3Cl)C2=O)cc(OC)c1OC`, 1150 nM; for `CC(=O)c1ccc(OCC(O)CN2CCN(CCN3C(=O)c4cccc5cccc(c45)C3=O)CC2)cc1` (stereo not drawn), 4420 nM. Consider `CCOC(=O)c1[nH]c2c(c1-c1ccccc1)C(=O)CC(c1ccccc1)C2` (stereo not drawn), for which the AC35 is 2690 nM. For `C[C@]1(O)CC(=O)C=C[C@H]1Nc1ccccc1` the value was 1970 nM; for `O=C(NC1CCCCC1)c1ccc([N+](=O)[O-])o1`, 1370 nM; for `Cc1ccc(S(=O)(=O)[N-]c2nc3ccccc3nc2-n2cc[n+](Cc3ccccc3)c2)cc1`, 33.9 nM. Take `CCn1c2ccccc2c2cc(Nc3cc(C)nc4ncnn34)ccc21`: the AC35 is 420 nM.

As to `CCc1ccc(/C=N/NC(=O)c2nnn(-c3nonc3N)c2C(C)C)cc1`, the AC35 was 2630 nM. In the case of `Cc1ccc(C(=O)N/C(=C/c2ccco2)C(=O)NCCc2c[nH]c3ccccc23)cc1`, the AC35 is 1750 nM. Turning to `CC(C)(C)S(=O)(=O)N1C[C@H]2CC/C=C\C/C(c3ccccc3)=C\2[C@@H]1CCO`, the AC35 is 536 nM. As for `COc1ccc(C2=NOC(C(=O)NCc3cccs3)C2)cc1` (stereo not drawn), the AC35 is 1140 nM. In the case of `COC(=O)c1ccc(C(=O)NC2CC(C)(C)Cc3c2cnn3-c2ccc(F)cc2)nc1` (stereo not drawn), the AC35 is 3950 nM. With `O=C1NC(=O)N(Cc2ccco2)C(=O)/C1=C/C=C/c1ccco1`, the AC35 is 12300 nM.

As for `COc1ccc(Sc2nnc(Cc3ccccc3)c3ccccc23)cc1`, the AC35 was 4370 nM. Turning to `Cc1cccc(N2C(=O)N3[C@H](c4ccc(F)cc4)[C@@H]4C(=O)N(C5CCCCC5)C(=O)[C@@H]4[C@]3(Cc3ccccc3)C2=O)c1`, the AC35 is 541 nM. As to `CC(=O)c1cccc(Nc2cc(C)nc3c(C)cc(C)cc23)c1`, the AC35 is 23.4 nM. Turning to `O=C(CCN1C(=O)/C(=C/c2cccs2)SC1=S)N1CCCCC1`, the AC35 was 4530 nM. For `O=C(N/N=C/c1ccc(F)cc1)c1sccc1OCc1ccc(F)cc1` the value was 1580 nM. Consider `Cc1ccc(C(=O)c2coc3c2C(=O)C(=O)c2ccccc2-3)cc1`, for which the AC35 was 4050 nM.

For `O=C(CCl)Nc1cc(S(=O)(=O)N2CCCCCC2)ccc1Cl`, the AC35 is 1160 nM. On to `COc1ccc(S(=O)(=O)NCc2ccccn2)cc1NC(=O)c1ccccc1C`, for which the AC35 was 3110 nM. Then `c1ccc(C2=Nn3c(nnc3-c3n[nH]c4c3CCC4)SC2)cc1`, with 2250 nM; and `COc1cc(-c2coc3c(C(=O)NCc4ccc(OC)c(OC)c4)cccc23)ccc1O`, with 2800 nM. Then `O=c1cc(-c2ccc(O)cc2)oc2cc(O)c(C3OC(CO)C(O)C(O)C3O)c(O)c12` (stereo not drawn), with 15.1 nM. On to `Cc1ccc(-c2nc(NCCN(C)C)c3ccccc3n2)cc1`, for which the AC35 was 4450 nM. With `COc1ccccc1-n1cnc2cc(NCc3cccs3)ccc21`, the AC35 was 266 nM. Then `CC(C)n1cc(NC(=O)c2cc(-c3ccccc3)on2)cn1`, with 568 nM; and `COc1ccc(/C=C/C(=O)c2ccc(Cl)s2)cc1O`, with 6020 nM. For `CCOc1ccc(/C=C2\SC(N3CCCCC3)=NC2=O)cc1` the value was 5570 nM; for `CC(Nc1nc(-c2ccccc2)nc2ccccc12)c1ccccc1` (stereo not drawn), 379 nM; for `COc1cccc(C(=O)Nc2ccc3c(c2)C(=O)c2ccccc2C3=O)c1`, 121 nM. In the case of `CC(C)(C)c1ccc(OCc2ccc(C(=O)Nc3cccnc3)o2)cc1`, the AC35 was 519 nM.

For `COc1cc2c(cc1OC)C(c1ccccc1)N(C(=O)c1ccco1)CC2` (stereo not drawn), the AC35 is 375 nM.

Regarding `COc1cc(/C=N/NC(=O)c2ccc(-c3ccccc3)cc2)cc(OC)c1OC`, the AC35 was 4600 nM. Then `CC(Nc1nc(-c2cccnc2)nc2ccccc12)c1ccc(F)cc1` (stereo not drawn), with 3450 nM; and `CC(=O)Nc1ccc(C(=O)N/N=C/c2ccccc2OCc2ccccc2)cc1`, with 4360 nM; and `Cc1cc(C)c2c(N)c3cccc(C)c3nc2n1`, with 5820 nM.

In the case of `CC(=O)Nc1ccc(NC(=O)c2ccc(-c3c(C)noc3C)c3ccoc23)cc1`, the AC35 was 5690 nM. As for `CCN(CC)S(=O)(=O)c1cccc(C(=O)OCC(=O)Nc2ccc3c(c2)c2ccccc2n3CC)c1`, the AC35 was 1390 nM. As to `Cc1cc2nnc(SCC(=O)NCc3ccco3)n2c2ccccc12`, the AC35 is 16600 nM.

As for `COc1cc2c(cc1OC)C(=O)N1[C@H]3c4cc(C)ccc4OC[C@@H]3[C@H](c3ccccc3)[C@]1(C)C(=O)N2`, the AC35 was 131 nM. Then `Cc1ccc(C)c(Cn2nnc3c(=O)[nH]c(C4CCN(C(=O)c5ccco5)CC4)nc32)c1`, with 852 nM; and `Cc1ccc(S(=O)(=O)N2CCN(C(=O)COC(=O)c3cc([N+](=O)[O-])ccc3NCCO)CC2)c(C)c1`, with 1460 nM; and `COc1ccc(CNC(=O)c2cccc3c(-c4cnn(C)c4)coc23)cc1OC`, with 1300 nM. With `COc1ccc2c(c1)[C@H]1[C@H](CO2)[C@H](c2ccccc2)[C@]2(C)C(=O)Nc3ccc(Cl)cc3C(=O)N12`, the AC35 was 148 nM.

On to `Nc1nc(-c2ccccc2)cc(-c2ccccc2O)n1`, for which the AC35 was 1760 nM. For `CCN1C(=O)CCN(C2CCCC2)c2nc(Nc3ccc(C(=O)NC4CCN(C)CC4)cc3OC)ncc21`, the AC35 was 226 nM. Then `COc1cc2c(cc1OC)CN(c1ccc(C(F)(F)F)cn1)CC2`, with 2500 nM; and `CCOC(=O)[C@H]1[C@H]2COc3ccc(Br)cc3[C@@H]2N2C(=O)c3cc(OC)c(OC)cc3NC(=O)[C@@]12C`, with 3990 nM. For the compound `CC(C)c1ccc(OCc2ccc(C(=O)N3CCCC3)o2)cc1`, the AC35 is 850 nM. Regarding `C[C@@]12C(=O)Nc3cc(F)ccc3C(=O)N1[C@H]1c3ccccc3OC[C@@H]1[C@@H]2c1ccccc1`, the AC35 is 1510 nM. On to `Cc1ccc(C(=O)N/C(=C\c2cccs2)C(=O)NCCc2c[nH]c3ccccc23)cc1C`, for which the AC35 is 116 nM. On to `CC1CN(C(=O)c2ccc(COc3ccc(C(C)C)cc3)o2)CC(C)O1` (stereo not drawn), for which the AC35 is below 1.2 nM.

Take `C/C(=N\NC(=O)c1c(Cl)c(C)nn1C)c1ccc(NC(=O)C2CCC2)cc1`: the AC35 was 475 nM. Take `CCc1ccc(N2C(=O)NC(=O)/C(=C\C=C\c3ccco3)C2=O)cc1`: the AC35 is 1740 nM. Take `COc1cccc(/C=N/NC(=O)c2cc3c(OC)c(OC)ccc3[nH]2)c1OC`: the AC35 is 4940 nM. Consider `COc1ccc2[nH]c(C(=O)N3CCN(Cc4ccccc4)CC3)cc2c1OC`, for which the AC35 was 2980 nM.
